Measured values as given in patent US10336788B2, “Inhibition of cardiac fibrosis in myocardial infarction” (Moerae Matrix, Inc., priority 2014, dated 2019).
No end group written: not given here.

What was measured:
MK2 = assay: Immunoblot analysis of MK2 activity (HNRNPA0, total MK2, p-MK2) in primary cardiac fibroblasts; assay type: cell-based, rat
Experimental: Cells were rinsed in PMS and grown in DMEM (cat. #11966-025, Gibco) for 2 hours prior to initiating hypoxia (simulated ischemia). Hypoxia was induced by placing cells in a hypoxia chamber ([…] 150i, Thermo Scientific) in a mixture of 5% CO2/95% N2 to attain a 1% oxygen concentration, according to the manufacturer's instruction. […] The MMI-0100 peptide was added to the cells at the start of the ischemia time. Cells were cultured in 12 well plates. At the time of performing the experiments, all cultures were approximately 70-90% confluent. Three different time points were adopted for each of the three cell lines according to the severity of cell death under hypoxia determined by LDH release: for H9C2 cell line: 8 hr; 16 hr; 24 hr; for HL-1 cell line: 4 hr; 8 hr; 12 hr; for cardiac fibroblast cell line: 16 hr; 32 hr; 48 hr.
The left over cell lysates from the Caspase activity assay were used for the Western blots. […] After blocking with recommended blocking reagents for 1 h at the room temperature, the membranes were incubated overnight at 4° C. with primary antibodies in TBS-T, and then incubated with secondary antibodies conjugated with HRP in TBS-T. HNRNPA0, MAPK2, and phospho-MAPK2 proteins were detected using anti-HNRNPA0 (cat. #HPA036569, 1:1000, Sigma-Aldrich), anti-MAPKAPK2 (cat. #SAB4300553, Sigma-Aldrich), and anti-phospho-MAPKAPK2 (cat. #SAB4300241, 1:1000, Sigma-Aldrich). […]

C57BL/6 mice = assay: Survival analysis (Kaplan-Meier) after permanent LAD ligation or daily peptide; assay type: in vivo, mouse
Description: Nature Medicine. […] Nature. 2012; 485:593-8]. […] Proc Natl Acad Scie USA. […] Circulation Res. 2009; 105:80-8].
SigmaPlot (Systat Software, Inc., San Jose, Calif.) was used to determine significant statistical differences using a Log-rank (Mantel-Cox) test to determine differences in survival or a Kruskal-Wallis one-way ANOVA for both in vivo and in vitro studies at each terminal time point in experiments run in parallel. If significance was reached (p<0.05), a post-hoc all pairwise Multiple Comparison Procedures (Tukey Test) was performed between each of the groups to determine significance. Significance was defined as p<0.05.

[1] = test system: abdominal adhesions post-surgery; details: Ward et al. 2011; cited from earlier work

## YARAAARQARAKALARQLGVAA [MMI-0100]
MK2; compared to hypoxia alone
  protein levels of MK2 and p-MK2: did not significantly differ
MK2; hypoxia, 16, 32, or 48 hours
  MK2 activity, as measured by HNRNPA0 protein levels: did not change
C57BL/6 mice; AMI mice, daily intraperitoneal dosing, 14 days
  survival after AMI with or without MMI-0100 treatment: no differences in survival
C57BL/6 mice; mice without AMI, daily MMI-0100 intraperitoneally vs PBS
  effect on survival, MMI-0100 alone: did not have any effect
[1]
  abdominal adhesions post-surgery: inhibiting
